Read-outs that look alike come from different tables or passages of the source.

One assay has as its system CNE cells. Briefly: MTT cytotoxicity assay, CNE. The settings on record: 72 h, mean ± SD, three independent experiments. It counts as cell-based, human. An excerpt:
(§1) The following in vitro human cancer cell lines were used: HepG 2 ([…]), Hela (Henrietta Lacks strain of cancer cells), Hct-116 (human colorectal cells), CNE (human nasopharyngeal carcinoma cells), Spca-2 (human lung adenocarcinoma cell line), HUVEC (human umbilical vein endothelial cells). The cell lines (HepG 2, Hela, Hct-116, CNE, Spca-2, HUVEC) were purchased from the Cell Resource Center of Shanghai Institutes for Biological Sciences, The Academy of Sciences of China.
(§2) HepG-2, Hela, Hct-116, CNE, HUVEC cells were cultured in Dulbecco Modified Eagle Medium (DMEM) (Thermo), containing 4.0 mM L-Glutamine and 4,500 mg/L Glucose, supplemented with 10% (v/v) fetal bovine serum (FBS; HyClone, Logan, UT, USA). Spca-2 cells were cultured in RPMI-1640 medium, containing 2.05 mM L-Glutamine without Calcium nitrate, supplemented with 10% (v/v) fetal bovine serum (FBS; HyClone). The cell culture media was supplemented with penicillin/streptomycin at 100 Units/mL as adherent monolayers. Cell cultures were kept in a humidified incubator with 5% CO2 at 37 °C. Stock solutions were prepared in dimethyl sulfoxide (DMSO) and further dilutions were made with fresh culture medium. The concentration of DMSO in the final culture medium was 1%, which had no effect on the cell viability.
(§3) Chemosensitivity was assessed using 3-(4,5-dimethylthiazol-2-yl)-2,5-diphenyl tetrazolium bromide (MTT) assay. Briefly, exponentially growing HepG-2 (2,000–3,000 cells/well), Hela (2,000–3,000 cells/well), Hct-116 (3,000–4,000 cells/well), CNE (2,000–3,000 cells/well), HUVEC (2,000–3,000 cells/well) and Spca-2 […], and then […] of MTT (10 mg/mL) was added. After incubation for 4 h at 37 °C, the purple formazan crystals (i.e., a reduced form of MTT) generated from viable cells were dissolved by adding 100 μL DMSO in each well. The plates were swirled gently for 10 min to dissolve the precipitate, and quantified by measuring the optical density (OD) of the plates at a wavelength of 490 nm on plate reader (TECAN infinite M1000). Each concentration was repeated in three wells and the same experimental conditions were provided for all compounds and MTT analysis was repeated three times for each cell line.
For orientation: Tetrazolium assays rely on reduction of a dye to a coloured formazan, in cell work by metabolically active cells.

The subject of assay [1] is HepG-2 cells. As to the kind of experiment: MTT cytotoxicity assay, HepG-2. The conditions noted are these: 72 h, mean ± SD, three independent experiments. Type of assay: cell-based, human.
Text: as §1, §2, §3

The subject of assay [2] is Hct-116 cells. The settings on record: cited from earlier work.
The next assay concerns Hela cells. Briefly: MTT cytotoxicity assay, Hela. It counts as cell-based, human. The settings on record: 72 h, mean ± SD, three independent experiments.
Text: as §1, §2, §3

Assay [3] deals with HepG-2 cells. Briefly: Cell cycle analysis by PI flow cytometry, HepG-2. Type of assay: cell-based, human. The conditions noted are these: 48 h, untreated 4.27%. From the text:
The cell cycle is the series of events that take place in a cell leading to its division and duplication (replication). The cell cycle consists of four distinct phases: G1 phase, S phase (synthesis), G2 phase (collectively known as interphase) and M phase (mitosis). The G1 stage is the stage when preparation of energy and material for DNA replication occurs. The S stage is the stage when DNA replication occurs. The G2 stage is the stage when preparation for the M stage occurs. The M stage is “mitosis,” and is when nuclear and cytoplasmic division occurs.
The cell lines were treated with indicated concentrations of compounds. After being incubated for 48 h, cells were washed twice with ice-cold PBS, fixed and permeabilized with ice-cold 70% ethanol at −20 °C overnight. The cells were treated with 100 μg/mL RNase A at 37 °C for 30 min after washed with ice-cold PBS, and finally stained with 1 mg/mL propidium iodide (PI) in the dark at 4 °C for 30 min. Analysis was performed with the system software (CellQuest; BD Biosciences).
On the technique in general: A flow cytometer gives signals particle by particle.

A further assay concerns Spca-2 cells. Briefly: MTT cytotoxicity assay, Spca-2. Type of assay: cell-based, human. The settings on record: 72 h; mean ± SD, three independent experiments.
Text: as §1, §2
as §3, with “Each concentration was repeated in three wells and the same experimental conditions were provided for all compounds and MTT analysis was repeated three times for each cell line.” left out

Assay [4] has as its system HepG-2 cells. As to the kind of experiment: Annexin V-FITC/PI apoptosis flow cytometry, HepG-2. It counts as cell-based, human. The conditions noted are these: 24 h. From the text:
Many anthraquinones such as rhein and emodim induce apoptosis. Flow cytometry was used to investigate analog-induced apoptosis and cell death. The compounds (5a–c) with cytotoxic effects were investigated for the effects on the apoptosis of HepG-2 cells. To clarify the mechanism of rhein derivative-induced cell death, we determined both early and late apoptosis using annexin V-FITC and PI (Propidium iodide) labeling of live cells. Annexin V binds to phosphatidylserine, which is exposed on the cell membrane and is one of the earliest indicators of cellular apoptosis. PI is used as a DNA stain for both flow cytometry to evaluate cell viability or DNA content in cell cycle analysis and microscopy to visualize the nucleus and other DNA containing organelles. It can be used to differentiate necrotic, apoptotic and normal cells. In the present study, the apoptotic cell rates were determined for the HepG-2 cells after stimulation for 24 h by the compounds at different concentrations. […] Compounds 5a and 5b induced apoptosis in 84.4% and 70.4% of the HepG-2 cells. Compounds 5a and 5b are of special interest as these compounds seem to drive HepG-2 cells directly into early apoptosis. Meanwhile, we also investigated for the effects on the apoptosis of HUVEC cells.
Apoptosis was discriminated with the annexin V-FITC/propidium iodide test. […]

The test system of assay [5] is ct-DNA. Briefly: GelRed-ct-DNA competitive fluorescence quenching (Stern-Volmer). Set-up: unit not given here. It counts as binding, calf. The settings on record: [GelRed]/[DNA] = 1:10, excitation 350 nm, emission 590 nm. From the text:
The binding ability of these complexes to ct-DNA was primarily investigated by competitive binding in which they served as an intercalative binding probe in competition with GelRed. GelRed, which is environmentally safe and ultra-sensitive for DNA staining, is a newly developed DNA intercalator to replace the classic DNA intercalator EB. Furthermore, both GelRed and EB bound with ct-DNA emit characteristic fluorescence at 590 nm upon 350 nm UV light excitation.
In competitive binding experiments, GelRed and ct-DNA solutions were pre-incubated for 30 min to ensure sufficient interactions. The concentration ratio of GelRed to DNA was set at [GelRed]/[DNA] = 1:10 to ensure sufficient binding sites of DNA for GelRed. The emission spectra of the GelRed–ctDNA system in the absence and presence of 5b were shown in Figure 2 (for that of 5a and 5c, see Figures S3 and S4). […] The presence of 5b considerably quenched the fluorescence emission of GelRed with the saturation state achieved at the [5b]/[GelRed] ratio of 8:1.
where [DNA] is the DNA concentration in nucleotides, ɛa is the molar extinction coefficient of the compound bound with DNA, ɛf is the extinction coefficient of the free compound, and ɛb is the extinction coefficient of the compound fully bound to DNA. ɛa, ɛf and ɛb are all calculated from the Lambert-Beer’s law (ɛ = A/[compound]). To determine ɛb, it is assumed that the compounds are fully bound with DNA at the point where no further hypochromicity is observed under the addition of ct-DNA, and the apparent absorbance Ab is regarded as the absorbance of only the bound compounds. Ct is the constant concentration of the compounds, and s is the number of binding sites in base pairs. A solution containing 2 × 10^−4 M DNA and 2 × 10^−5 M GelRed ([DNA]/[GelRed] = 10:1) was prepared for GelRed-DNA competitive binding studies. Fluorescence emission spectra were recorded under slit width as 10 nm/10 nm for Ex/Em, respectively. The quenching constant for comparing the efficiency of fluorescence quenching, i.e., Kq, of each compound was obtained by the linear fit of plotting I0/I versus [Q], according to the classic Stern-Volmer equation: I0/I = 1 + Kq × [Q] […] In the fluorescence polarization experiment, each sample was pre-incubated for 40 min before the fluorescence polarization was recorded under the condition of 595 nm emitting wavelength with 350 nm exciting wavelength, and slit width was set as 5 nm/5 nm for Ex/Em, respectively. CD absorption spectra of DNA were measured in TBS at a 100 nm/min scan rate in the wavelength range from 200 to 400 nm, with 1 × 10^−4 M DNA in the absence and presence of each compound of 2 × 10^−5 M, respectively. […]

The test system of another assay is HUVEC cells. As to the kind of experiment: MTT cytotoxicity assay, HUVEC normal cells. Type of assay: cell-based, human. The conditions noted are these: normal cell line, 72 h, mean ± SD, three independent experiments.
Text: as §1, §2, §3

Assay [6] has as its system Hct-116 cells. Briefly: MTT cytotoxicity assay, Hct-116. The conditions noted are these: 72 h; mean ± SD, three independent experiments. Type of assay: cell-based, human.
Text: as §1, §2
as §3, with “Each concentration was repeated in three wells and the same experimental conditions were provided for all compounds and MTT analysis was repeated three times for each cell line.” left out

Assay [7] has as its system ct-DNA. Briefly: Circular dichroism spectra of ct-DNA. It counts as binding, calf. The conditions noted are these: [5b]/[DNA] ratio 1:10. From the text:
The circular dichroism (CD) is a useful technique to assess whether the nucleic acids undergo conformational changes as a result of complex formation or changes in environmental conditions. […] This was consistent with the characteristic B conformation of DNA [56].
The decrease in the intensities of both positive and negative bands can usually be observed in the intercalative binding of small molecules to DNA [57].
where [DNA] is the DNA concentration in nucleotides, ɛa is the molar extinction coefficient of the compound bound with DNA, ɛf is the extinction coefficient of the free compound, and ɛb is the extinction coefficient of the compound fully bound to DNA. ɛa, ɛf and ɛb are all calculated from the Lambert-Beer’s law (ɛ = A/[compound]). To determine ɛb, it is assumed that the compounds are fully bound with DNA at the point where no further hypochromicity is observed under the addition of ct-DNA, and the apparent absorbance Ab is regarded as the absorbance of only the bound compounds. […] Fluorescence emission spectra were recorded under slit width as 10 nm/10 nm for Ex/Em, respectively. The quenching constant for comparing the efficiency of fluorescence quenching, i.e., Kq, of each compound was obtained by the linear fit of plotting I0/I versus [Q], according to the classic Stern-Volmer equation: I0/I = 1 + Kq × [Q] […]
In general terms: CD spectra are sensitive to the conformation of chiral molecules.

The term IC50 denotes the midpoint of a concentration-inhibition curve. On to `O=c1[nH]cc(F)c(=O)[nH]1` [5-Fu, fluorouracil, reference compound], for which the concentration for half-maximal inhibition (IC50) is greater than 50 µM with CNE cells (Homo sapiens, CNE); 20.3 ± 2.43 µM with HepG-2 cells [1] (Homo sapiens, HepG2); 4.3 ± 0.52 µM with Hct-116 cells [2]; greater than 50 µM in the assay on Hela cells (Homo sapiens, HeLa).
As to `CCOP(=O)(OCC)C(C)(NC(=O)c1cc(O)c2c(c1)C(=O)c1cccc(O)c1C2=O)c1ccc(C)cc1` (centres unmarked) [5a], the IC50 was 33.8 ± 2.17 µM in the assay with CNE cells; 15.1 ± 1.54 µM with HepG-2 cells [1]; 16.9 ± 1.32 µM in the assay with Spca-2 cells; greater than 100 µM in the assay on HUVEC cells; 30.6 ± 8.75 µM with Hct-116 cells [6]; greater than 50 µM in the assay on Hela cells. The G2-phase population with HepG-2 cells [3] (HepG-2, 20 μM) was 7.23%; in the assay with HepG-2 cells [3] (HepG-2, 30 μM) it was 11.08%; with HepG-2 cells [3] (HepG-2, 40 μM), 18.05%. For the same compound, the “apoptosis induced, % of HepG-2 cells” value in the assay with HepG-2 cells [4] is given as 84.4%. Also, in the assay on ct-DNA [5], the “quenching constant Kq (Stern-Volmer)” value is recorded as 2.02 × 10^3.
As to `CCOP(=O)(OCC)C(C)(CCc1ccccc1)NC(=O)c1cc(O)c2c(c1)C(=O)c1cccc(O)c1C2=O` (centres unmarked) [5b, O,O′-Diethyl{[2-(4,5-dihydroxy-9,10-dioxo-9,10-dihydroanthracene)acetamido] (Phenylethyl)ethyl} phosphonate], the IC50 in the assay with CNE cells is 27.3 ± 3.78 µM; with HepG-2 cells [1] it was 8.82 ± 0.95 µM; with Spca-2 cells, 9.01 ± 0.87 µM; in the assay with HUVEC cells, greater than 100 µM; in the assay on Hct-116 cells [6] it was 12.7 ± 1.5 µM; in the assay on Hela cells, 45.4 µM. The G2-phase population in the assay on HepG-2 cells [3] (HepG-2, 10 μM) was 8.52%; in the assay on HepG-2 cells [3] (HepG-2, 20 μM), 14.56%; in the assay with HepG-2 cells [3] (HepG-2, 30 μM) it was 18.23%. For the same compound, the “apoptosis induced, % of HepG-2 cells” value in the assay with HepG-2 cells [4] is 70.4%. Further, the “quenching constant Kq (Stern-Volmer)” value in the assay with ct-DNA [5] was 3.2 × 10^3. Further, the “percentage decrease in maximal DNA negative CD absorption” value in the assay on ct-DNA [7] (negative band at 245 nm) is recorded as 32.2%. In addition, the “percentage decrease in maximal DNA positive CD absorption” value with ct-DNA [7] (positive band at 280 nm) is 9.78%.
Turning to `O=C(O)c1cc(O)c2c(c1)C(=O)c1cccc(O)c1C2=O` [Rhein], the “quenching constant Kq (Stern-Volmer)” value with ct-DNA [5] is reported as 3.94 × 10^3. The IC50 is 79.7 ± 5.4 µM in the assay with HUVEC cells (Homo sapiens, HUVEC) and greater than 50 µM in the assay on Hela cells (Homo sapiens, HeLa).
For the compound “O,O′-Diethyl {[2-(4,5-dihydroxy-9,10-dioxo-9,10-dihydroanthracene) acetamido] (phenyl) methyl} phosphonate [5c]”, the half-inhibitory concentration (IC50) is 38.3 ± 8.23 µM with CNE cells; 18.2 ± 1.87 µM in the assay with HepG-2 cells [1]; 25.1 ± 2.72 µM in the assay with Spca-2 cells; greater than 100 µM in the assay with HUVEC cells; 23.4 ± 3.22 µM with Hct-116 cells [6]; greater than 50 µM in the assay on Hela cells. In addition, the “quenching constant Kq (Stern-Volmer)” value in the assay with ct-DNA [5] is on record as 0.753 × 10^3.

Values taken from article PMC3676791, “Synthesis, Cytotoxicity, DNA Binding and Apoptosis of Rhein-Phosphonate Derivatives as Antitumor Agents” (International Journal of Molecular Sciences, 2013).
